Molecules are shown by their SMILES. Numbered stars: 1 amine (or outer) side, 2 acyl side, 3 side chain; on linkers, the order of the positions; unused ones are H or OH. Bridge positions count the residues as written; N and C are the ends. Square brackets hold non-standard residues; d marks the D form. Peptide text beside a SMILES is read from it. * marks the point of attachment. X5 = C=C(C)/C=C/C(C)c1[nH]c2ccccc2c1C[C@H](N[*:1])C(=O)[*:2]; X3 = C=C/C=C/Cc1[nH]c2ccccc2c1C[C@H](N[*:1])C(=O)[*:2]; Glu(3R-Me) = C[C@H](CC(=O)O)[C@H](N)C(=O)O; Kyn = Nc1ccccc1C(=O)C[C@H](N)C(=O)O; Decanoyl = CCCCCCCCCC(=O)*; Orn = NCCC[C@H](N)C(=O)O Bounds are passed on as bounds.

This note sets out measurements from publication PMC7447621, “Chemoenzymatic synthesis of daptomycin analogs active against daptomycin-resistant strains” (Applied Microbiology and Biotechnology, 2020).

The subject of data set [1] is S. aureus (SAUSA300_1713 NE573). Conditions: DapR, strain JE2 transposon mutant NE573, BEI NR-47116; MIC90, broth microdilution, MHB + 50 mg L^−1 calcium, 35 °C, 22 h, A600, triplicate.
The test system of data set [2] is S. aureus (SAUSA300_1715 NE1656). Conditions: DapR, strain JE2 transposon mutant NE1656, BEI NR-48198; MIC90, broth microdilution, MHB + 50 mg L^−1 calcium, 35 °C, 22 h, A600, triplicate. On the technique in general: In broth dilution the organism is exposed to a series of concentrations in liquid medium.
For data set [3], the system named is S. aureus (hVISA, SR3777). Conditions: DapS, BEI NR-50509; MIC90, broth microdilution, MHB + 50 mg L^−1 calcium, 35 °C, 22 h, A600, triplicate.
The subject of data set [4] is S. epidermidis (ATCC 12228). Conditions: DapS; MIC90, broth microdilution, MHB + 50 mg L^−1 calcium, 35 °C, 22 h, A600, triplicate.
A further data set deals with E. faecalis (R712). Conditions: DapR, BEI HM-335; MIC90, broth microdilution, MHB + 50 mg L^−1 calcium, 35 °C, 22 h, A600, triplicate.
The subject of a further data set is S. aureus (ATCC 25923). The following applies: DapS strain; MIC90, broth microdilution, MHB + 50 mg L^−1 calcium, inoculum 1×10^5–5×10^5 CFU/mL, 35 °C, 22 h, A600, triplicate; converted from μM.
The subject of data set [5] is S. aureus (MRSA, ATCC 700787). Conditions: DapS, MIC90, broth microdilution, MHB + 50 mg L^−1 calcium, 35 °C, 22 h, A600, triplicate.
Data set [6] is classed as physicochemical. The source says:
These differences in activity could be due to differences between the structures of Dap and its analogs either in complex with Gram-positive membranes or in their unbound form. However, with no three-dimensional structure data for the analogs, only conjecture can be offered as to the cause. […] [2004]; Jung et al. [2004]), the benzene ring of Trp is thought to stick out away from the peptide core and lie roughly parallel to the main axis of the acyl tail. […] [2017]), which also suffered from a decrease in activity compared with its N1-normal-prenylated regioisomer. Conversely, the diene moieties attached at the C2 position are prone to conjugate addition reactions which would prevent the proper binding conformation or even enable degradation pathways. Therefore, to check their stability, all purified Dap analogs were reinjected on RP-HPLC after their structural and activity characterization (see Supporting Information Fig. S3). […] While future kinetic and engineering studies will likely answer these questions, the SAR identified in this study will inform future Dap development efforts using the […]-based diversification scheme.

In the next data set the test system is S. aureus (hVISA, SR220). Conditions: DapS, VISA, BEI NR-50512; MIC90, broth microdilution, MHB + 50 mg L^−1 calcium, 35 °C, 22 h, A600, triplicate.
Data set [7] has as its system E. faecalis (hVRE, ATCC 700802). The following applies: DapS, VRE; MIC90, broth microdilution, MHB + 50 mg L^−1 calcium, 35 °C, 22 h, A600, triplicate.
Another data set concerns E. faecalis (S613). The following applies: DapS, BEI HM-334; MIC90, broth microdilution, MHB + 50 mg L^−1 calcium, 35 °C, 22 h, A600, triplicate.
Data set [8] deals with S. aureus (hVISA, SR4035). The following applies: DapS, BEI NR-50510; MIC90, broth microdilution, MHB + 50 mg L^−1 calcium, 35 °C, 22 h, A600, triplicate.

As usually defined, the MIC is the lowest concentration found to suppress growth. Regarding `C=C/C=C/Cc1[nH]c2ccccc2c1C[C@H](NC(=O)CCCCCCCCC)C(=O)N[C@H](CC(N)=O)C(=O)N[C@@H](CC(=O)O)C(=O)N[C@@H]1C(=O)NCC(=O)N[C@@H](CCCN)C(=O)N[C@@H](CC(=O)O)C(=O)N[C@H](C)C(=O)N[C@@H](CC(=O)O)C(=O)NCC(=O)N[C@H](CO)C(=O)N[C@@H]([C@H](C)CC(=O)O)C(=O)N[C@@H](CC(=O)c2ccccc2N)C(=O)O[C@@H]1C` [compound 45, C2-15-Dap] (Decanoyl-[X3][dN]DTG[Orn]D[dA]DG[dS][Glu(3R-Me)][Kyn]; ester 4-C), the MIC was greater than 8.4 µg/mL in [1]; greater than 8.4 µg/mL in data set [2]; 16.9 µg/mL in [3]; 16.9 µg/mL in [4]; greater than 8.4 µg/mL in the data set with E. faecalis (R712); 16.9 µg/mL with S. aureus (ATCC 25923). Moreover, the MIC in data set [5] is greater than 33.7 µg/mL; in the data set on S. aureus (hVISA, SR220), 33.7 µg/mL; in data set [7], 33.7 µg/mL; in the data set with E. faecalis (S613) it was greater than 8.4 µg/mL; in data set [8] it was greater than 33.7 µg/mL. Also, the “stability of the purified product (RP-HPLC chromatogram)” value in data set [6] is reported as “significant degradation”.
Take `C=C(C)/C=C/C(C)c1[nH]c2ccccc2c1C[C@H](NC(=O)CCCCCCCCC)C(=O)N[C@H](CC(N)=O)C(=O)N[C@@H](CC(=O)O)C(=O)N[C@@H]1C(=O)NCC(=O)N[C@@H](CCCN)C(=O)N[C@@H](CC(=O)O)C(=O)N[C@H](C)C(=O)N[C@@H](CC(=O)O)C(=O)NCC(=O)N[C@H](CO)C(=O)N[C@@H]([C@H](C)CC(=O)O)C(=O)N[C@@H](CC(=O)c2ccccc2N)C(=O)O[C@@H]1C` (stereo partly drawn) [compound 47, C2R-18-Dap] (Decanoyl-[X5][dN]DTG[Orn]D[dA]DG[dS][Glu(3R-Me)][Kyn]; ester 4-C): the minimal inhibitory concentration (MIC) was greater than 34.3 µg/mL in data set [1]; greater than 34.3 µg/mL in data set [2]; 34.3 µg/mL in data set [3]; 34.3 µg/mL in data set [4]; greater than 34.3 µg/mL with E. faecalis (R712); greater than 34.3 µg/mL in the data set with S. aureus (ATCC 25923). Besides, the minimal inhibitory concentration (MIC) in data set [5] is greater than 34.3 µg/mL; with S. aureus (hVISA, SR220), greater than 34.3 µg/mL; in data set [7], 34.3 µg/mL; with E. faecalis (S613) it was greater than 34.3 µg/mL.
